Where a name gives a salt, the structure may show the parent alone.
Molecular target: T1, MCP-1 receptor (Homo sapiens, UniProt P41597)
T1 construct: host or cells: THP-1 cell membranes
Test: MCP-1 binding assay (125I-MCP-1, THP-1 cell membranes)
Details: 0.2 nM 125I-labeled MCP-1, averages of several or two experiments, read-out: Inhibition Of MCP-1 Binding IC50
Description: Membranes used in the MCP-1 binding assay were prepared from THP-1 cells (human monocytic cell line source—American Type Culture Collection, Tumor Immunology Bank #202, Rockville, Md., accession no. ATCC TIB 202). Cells were harvested by centrifugation and washed twice in ice-cold PBS (phosphate-buffered saline) and the cell pellet was frozen at −80° C. in some cases. Cells were resuspended in ice-cold lysis buffer 5mM HEPES (2-(4N-,[2-hydroxyethyl] piperazin-1-yl)-N′-(2-ethanesulfonic acid), pH 7.5, 2 mM EDTA (ethylenediaminetetraacetic acid), 5 ug/ml each leupeptin, aprotinin, chymostatin (protease inhibitors), and 100 ug/ml PMSF (phenylmethane sulfonyl fluoride—also a protease inhibitor)) at a concentration of 5×10^7 cells/ml. […] Typical binding assays used 10-20 ug/well of total membrane protein as determined with a standard protein assay (e.g. BioRad, Richmond, Calif.).
For binding, 10-20 ug total membrane protein were included in the binding reaction along with 0.2 nM I^125-labeled MCP-1 (Amersham, Arlington Heights, Ill.) with or without unlabeled competitor MCP-1 (Peprotech, Rocky Hill, N.J.) (at 250-500 nM). […] Filters were dried and counted in a Beta-Plate scintillation counter using standard scintillation fluid. […]
IC50s were calculated using a non-linear 3-parameter logistic curve fit. […]

T1 sequence (P41597 whole entry): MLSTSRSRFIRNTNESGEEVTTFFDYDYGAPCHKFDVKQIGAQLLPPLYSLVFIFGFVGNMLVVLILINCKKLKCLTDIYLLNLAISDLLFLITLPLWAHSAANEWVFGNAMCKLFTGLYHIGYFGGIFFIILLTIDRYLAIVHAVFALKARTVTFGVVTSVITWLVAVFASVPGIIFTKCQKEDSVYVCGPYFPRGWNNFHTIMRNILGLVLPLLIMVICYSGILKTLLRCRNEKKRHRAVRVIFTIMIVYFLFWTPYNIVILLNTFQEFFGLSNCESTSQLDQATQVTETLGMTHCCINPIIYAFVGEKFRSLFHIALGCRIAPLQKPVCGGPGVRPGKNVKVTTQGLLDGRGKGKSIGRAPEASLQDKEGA

O=C(/C=C/C=C/c1ccc(Cl)c(Cl)c1)NCCCN1CCCCC1 [Example 1, 5-(3,4-Dichloro-phenyl)-penta-2,4-dienoic Acid (3-piperidin-1-yl-propyl)-amide-HCl]
IC50: 2200 nM

Reference: patent US6458806B1, “Aryl alkenamides derivatives as MCP-1 antagonists” (Millennium Pharmaceuticals, Inc., priority 1996, dated 2002)
